From US11224224B2, “Thiobenzoimidazole as fungicides” (REDAG CROP PROTECTION LTD, priority 2017, dated 2022)
Values after ≈ are worked out from the molar mass of the structure shown.

Tests used:
Assay type in all cases: cell-based
[1] = tested on: Pythium ultimum; test: Amended agar assay (PDA), colony growth; parameters: key to % control Pythium ultimum 2 ppm: D: no control detected at this concentration; C: up to 50% control; B: from 50 to 99% control; A: a control of greater than 99%, i.e. no detectable colony growth; conditions: for inhibition of growth at 2 ppm: Globisporangium ultimum, read-out: % control Pythium ultimum 2 ppm
[2] = tested on: Phytophthora cactorum; test: 96 well plate test (amended agar with spores); conditions: 96 well plate, 20, 2, 0.2 and 0.02 ppm, 1% PDA, 2 to 3 days (cells marked *), read-out: EC50 Phytophthora spp. (*96 well plate format vs. Phytophthora cactorum)
Protocol: Compounds were screened in 96 well plates with 10 compounds per plate. Each compound was screened using agar amended to 20, 2, 0.2 and 0.02 ppm, with Proline at 50 and 10 ppm and 0.2% DMSO used as controls. Each test concentration and standard was replicated twice on a plate. Compounds were screened against Phytophthora cactorum. The agar used in the test is a 1% PDA. 1000 spores/mL agar were added to the appropriate agar.
A ×10 stock solution in 2% DMSO was produced for each dose i.e. 200, 20, 2 and 0.2 ppm, and 10 μl of this added to the appropriate wells on the plate. An equivalent amount of 2% DMSO and Proline stock at 500 and 100 ppm were added for the controls. To each well 90 μl of the appropriate agar spore suspension was added to give the required final well concentrations. Plates were incubated at room temperature (18° C.) and assessed after 2 to 3 days. The amount of pathogen growth in each well was compared to the DMSO controls and an EC50 concentration was calculated. The results are provided in Table 1 in which G represents an EC50 above 20 ppm, F represents an EC50 of 1-20 ppm and E represents an EC50 less than 1 ppm.

[3] = tested on: oomycete plant pathogens; test: Fungicidal activity testing, overall summary; conditions: summary statement on Table 1
Protocol: The activity of compounds of the invention was assessed by testing against certain oomycete plant pathogens and representative data are presented in Table 1.

[4] = tested on: Phytophthora cinnamomi; test: Amended agar assay (PDA), colony growth; conditions: Phytophthora cinnamomi; for EC50: amended agar, 5-fold dilutions (cells without *), read-out: EC50 Phytophthora spp.
Protocol: (§1) Testing was carried out on potato dextrose agar (PDA) amended with each compound at a test concentration of 20 ppm. Amended agar was poured into three replicate 9 cm petri dishes. Each replicate dish was inoculated in the centre with a 5 mm agar plug taken from the leading edge of a culture aged between 2 and 7 days old; the age of the culture was dependant on the growth rate of the pathogen being tested. The test pathogens were Pythium ultimum and Phytophthora cinnamomi. Plates were incubated at 18° C. and the diameter of each colony measured before growth on the fastest growing plate reached the plate edge. This varied between 2 and 7 days depending on the growth rate of test pathogens. The % reduction in colony growth compared to the control plate was calculated for each pathogen. The results are provided in Table 1, in which D represents no control detected at this concentration; C represents up to 50% control; B from 50 to 99% control; and A represents a control of greater than 99%, i.e. no detectable colony growth.
(§2) Alternatively, or in addition, the same assay was conducted at descending test concentrations with 5-fold dilutions typically down to 0.032 ppm though sometimes as low as 0.00026 ppm, and an EC50 (the concentration at which 50% control would be achieved) was determined. The results are provided in Table 1 in which G represents an EC50 above 20 ppm, F represents an EC50 of 1-20 ppm and E represents and EC50 less than 1 ppm.

[5] = tested on: Pythium ultimum; test: Amended agar assay (PDA), colony growth; conditions: Globisporangium ultimum; for EC50: amended agar, 5-fold dilutions
Protocol: as §1, §2

EC50 [2] [mg/L]	Compound	inhibition of growth at 2 ppm [1] [%]	control over the pathogens tested [3]	further results
> 20	Cn1nnnc1-n1c(Sc2ncccn2)nc2ccccc21 [Example 60, 1-(1-Methyl-1H-tetrazol-5-yl)-2-(pyrimidin-2-ylthio)-1H-benzo[d]imidazole]	< 50	–	–
> 20	C#Cc1ccc2nc(SCc3cccc(NC(=O)C(F)(F)Oc4ccccc4)n3)n(-c3nnnn3C)c2c1 [Example 65, N-(6-(((6-Ethynyl-1-(1-methyl-1H-tetrazol-5-yl)-1H-benzo[d]imidazol-2-yl)thio)methyl)pyridin-2-yl)-2,2-difluoro-2-phenoxyacetamide]	50 to 99	–	–
> 20	Cn1nnnc1-n1c(SCc2ncc(Cl)cc2Cl)nc2ccccc21 [Example 77]	50 to 99	–	–
> 20	Clc1cncc(Cl)c1-n1c(SCc2ccccn2)nc2ccccc21 [Example 51]	–	–	% control Pythium ultimum 2 ppm [1]: D
> 20	Cn1nnnc1-n1c(SCc2ccccn2)nc2cccc(Cl)c21 [Example 82]	50 to 99	–	–
> 20	CN(C)C(=O)CSc1nc2ccccc2n1-c1nnnn1C [Example 58]	< 50	–	–
> 20	Cn1nnnc1-n1c(SCc2ccncn2)nc2ccccc21 [Example 43]	–	–	% control Pythium ultimum 2 ppm [1]: D
> 20	COc1cc(F)cc2c1nc(SCc1ccccn1)n2-c1nnnn1C [Example 85]	> 99	–	–
> 20	CCNC(=O)CSc1nc2ccccc2n1-c1nnnn1C [Example 55]	< 50	–	–
> 20	Cn1nnnc1-n1c(SCc2ccc(C#N)cn2)nc2ccccc21 [Example 74]	< 50	–	–
> 20	Cn1nnnc1-n1c(SCc2cccc(NC(=O)C3CC3)n2)nc2cccc(Cl)c21 [Example 81]	–	–	–
> 20	Cn1nnnc1-n1c(SCc2cccc(NC(=O)C(F)(F)Oc3ccccc3)n2)nc2ccc(I)cc21 [Example 44]	–	–	% control Pythium ultimum 2 ppm [1]: D
> 20	Cn1nnnc1-n1c(SCC(=O)Nc2ccccc2)nc2ccccc21 [Example 57]	< 50	–	–
> 20	Cn1nnnc1-n1c(SCC(=O)N2CCOCC2)nc2ccccc21 [Example 56]	< 50	–	–
> 20	COc1cccnc1CSc1nc2ccccc2n1-c1nnnn1C [Example 71]	< 50	–	–
> 20	Cn1nnnc1-n1c(Sc2ccccn2)nc2ccccc21 [Example 61, 1-(1-Methyl-1H-tetrazol-5-yl)-2-(pyridin-2-ylthio)-1H-benzo[d]imidazole]	–	–	% control Pythium ultimum 2 ppm [1]: D
> 20	Cn1nnnc1-n1c(SCc2nccc3ccccc23)nc2ccccc21 [Example 68]	50 to 99	–	–
> 20	C#Cc1ccc2nc(SCc3ccccn3)n(-c3nnnn3C)c2c1 [Example 64, 6-Ethynyl-1-(1-methyl-1H-tetrazol-5-yl)-2-((pyridin-2-ylmethyl)thio)-1H-benzo[d]imidazole]	< 50	–	–
> 20	Cn1nnnc1-n1c(SCc2cccc(C#N)n2)nc2ccccc21 [Example 72]	–	–	% control Pythium ultimum 2 ppm [1]: D

Continued, compound first:

Compound	EC50 [2] [mg/L]	inhibition of growth at 2 ppm [1] [%]	control over the pathogens tested [3]	further results
COc1ccnc(CSc2nc3ccccc3n2-c2nnnn2C)c1 [Example 42]	1 to 20 (≈ 2.83 to 56.6 µM)	> 99	good to excellent control	–
Cc1ccc(CSc2nc3ccccc3n2-c2nnnn2C)nc1 [Example 69]	1 to 20 (≈ 2.96 to 59.3 µM)	> 99	good to excellent control	–
CCC(=O)Nc1cccc(CSc2nc3ccccc3n2-c2nnnn2C)n1 [Example 36]	> 20	50 to 99	–	–
COc1ccc(CSc2nc3ccccc3n2-c2nnnn2C)nc1 [Example 73]	1 to 20 (≈ 2.83 to 56.6 µM)	> 99	good to excellent control	–
Cn1nnnc1-n1c(SCc2cccc(NC(=O)C3CC3)n2)nc2ccccc21 [Example 35]	1 to 20 (≈ 2.46 to 49.2 µM)	50 to 99	–	–
COc1c(C)cnc(CSc2nc3ccccc3n2-c2nnnn2C)c1C [Example 38]	1 to 20 (≈ 2.62 to 52.4 µM)	> 99	good to excellent control	–
Cn1nnnc1-n1c(SCC(=O)N2CCCC2)nc2ccccc21 [Example 25]	–	50 to 99	good to excellent control	EC50 [4]: < 1 mg/L; EC50 [5]: < 1 mg/L
Cn1nnnc1-n1c(SCc2cccc(NC(=O)C3CC3)n2)nc2c(Cl)cccc21 [Example 63, N-(6-(((4-Chloro-1-(1-methyl-1H-tetrazol-5-yl)-1H-benzo[d]imidazol-2-yl)thio)methyl)pyridin-2-yl)cyclopropanecarboxamide]	1 to 20 (≈ 2.27 to 45.4 µM)	> 99	good to excellent control	–
Cn1nnnc1-n1c(SCc2cccc(NC(=O)C(F)(F)Oc3ccccc3)n2)nc2ccc(F)cc21 [Example 8]	–	50 to 99	good to excellent control	EC50 [4]: < 1 mg/L; EC50 [5]: < 1 mg/L
Cn1nnnc1-n1c(SCc2nccs2)nc2ccc(F)cc21 [Example 48]	1 to 20 (≈ 2.88 to 57.6 µM)	> 99	good to excellent control	–
Cn1nnnc1-n1c(SCc2cc(C(F)(F)F)ccn2)nc2ccccc21 [Example 78]	1 to 20 (≈ 2.56 to 51.1 µM)	> 99	good to excellent control	–
COc1ccnc(CSc2nc3ccccc3n2-c2nnnn2C)c1OC [Example 39]	1 to 20 (≈ 2.61 to 52.2 µM)	> 99	good to excellent control	–
Cn1nnnc1-n1c(SCc2ccc(Cl)cn2)nc2ccccc21 [Example 76]	1 to 20 (≈ 2.79 to 55.9 µM)	> 99	good to excellent control	–
Cn1nnnc1-n1c(SCc2ccc(Br)cn2)nc2ccccc21 [Example 75]	1 to 20 (≈ 2.49 to 49.7 µM)	> 99	good to excellent control	–
Cn1nnnc1-n1c(SCc2cccc(NCc3ccccc3)n2)nc2ccccc21 [Example 88, N-Benzyl-6-(((1-(1-methyl-1H-tetrazol-5-yl)-1H-benzo[d]imidazol-2-yl)thio)methyl)pyridin-2-amine]	< 1	> 99	good to excellent control	–
Cn1nnnc1-n1c(SCc2ccccn2)nc2cc(Cl)ccc21 [Example 67]	1 to 20 (≈ 2.79 to 55.9 µM)	> 99	good to excellent control	–
Cn1nnnc1-n1c(SCc2cc(C#N)ccn2)nc2ccccc21 [Example 70]	1 to 20 (≈ 2.87 to 57.4 µM)	> 99	good to excellent control	–
Cn1nnnc1-n1c(SCc2ccccn2)nc2ccc(F)cc21 [Example 7]	–	–	good to excellent control	EC50 [4]: < 1 mg/L; EC50 [5]: < 1 mg/L
Cn1nnnc1-n1c(SCc2ccccn2)nc2ccccc21 [Example 2]	–	> 99	good to excellent control	inhibition of growth at 20 ppm ([4]; 20 ppm in amended PDA, 18° C., reduction in colony growth vs control plate, read-out: % control Phytophthora spp. 20 ppm): 50 to 99%; EC50 [4]: < 1 mg/L; inhibition of growth at 20 ppm ([5]; 20 ppm in amended PDA, 18° C., reduction in colony growth vs control plate): > 99%; EC50 [5]: 1 to 20 mg/L (≈ 3.09 to 61.8 µM)
